According to patent publication US8394836B2, “Indoles and their therapeutic use” (Pulmagen Therapeutics (Asthma) Limited, priority 2007, dated 2013):

Columns and labels:
CRTH2 receptor [1] = molecular target: T1, CRTH2 receptor (Homo sapiens, UniProt Q9Y5Y4); experiment: GTPγS functional assay; type: biochemical; conditions: HEK cell membranes expressing the CRTH2 receptor; PGD2 30 nM; [35S]-GTPγS; Ki from IC50 by Cheng-Prusoff
T1 construct: expressed in transfected cells; host or cells: Human embryonic kidney (HEK) cells, used as membranes
T1 sequence (Q9Y5Y4 1-395): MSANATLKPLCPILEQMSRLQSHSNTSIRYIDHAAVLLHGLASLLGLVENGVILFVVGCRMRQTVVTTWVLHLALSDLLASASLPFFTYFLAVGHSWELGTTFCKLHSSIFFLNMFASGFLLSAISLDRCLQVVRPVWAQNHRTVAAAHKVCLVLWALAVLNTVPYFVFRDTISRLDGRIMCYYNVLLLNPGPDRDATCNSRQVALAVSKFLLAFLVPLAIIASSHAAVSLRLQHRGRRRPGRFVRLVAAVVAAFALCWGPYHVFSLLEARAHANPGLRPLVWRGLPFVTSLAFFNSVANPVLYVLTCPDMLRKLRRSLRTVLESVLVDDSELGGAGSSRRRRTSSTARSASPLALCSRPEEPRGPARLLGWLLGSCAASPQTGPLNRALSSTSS
Protocol: The GTP[…]S Assay is performed in a final volume of […] assay buffer (20 mM HEPES pH 7.4, 10 mM MgCl2, 100 mM NaCl, 10 μg/mL saponin). DMSO concentrations are kept constant at 1% by volume. Human embryonic kidney (HEK) cell membranes (3.5 μg) expressing the CRTH2 receptor are incubated with the compounds for 15 min at 30° C. prior to addition of PGD2 (30 nM final concentration) and GTP (10 μM final concentration). The assay solutions are then incubated for 30 minutes at 30° C., followed by addition of [^35S]-GTPγS (0.1 nM final concentration). The assay plate is than shaken and incubated for 5 minutes at 30° C. Finally, SPA beads (Amersham Biosciences, UK) are added to a final concentration of 1.5 mg/well and the plate shaken and incubated for 30 minute at 30° C. The sealed plate is centrifuged at 1000 g for 10 mins at 30° C. and the bound [^35S]-GTPγS is detected on Microbeta scintillation counter (Perkin Elmer). Compound IC50 value is determined using a 6-point dose response curve in duplicate with a semi-log compound dilution series. IC50 calculations are performed using Excel and XLfit (Microsoft), and this value is used to determine a Ki value for the test compound using the Cheng-Prusoff equation.

CRTH2 receptor [2] = molecular target: T1, CRTH2 receptor; experiment: CRTH2 radioligand binding assay ([3H]-PGD2 displacement, SPA); conditions: HEK cell membranes expressing the CRTH2 receptor; 1 nM [3H]-PGD2; Ki from IC50 by Cheng-Prusoff
Protocol: Compounds of the invention were tested using the following biological test method to determine their ability to displace PGD2 from the CRTH2 receptor.
CRTH2 Radioligand Binding Assay
The receptor binding assay is performed in a final volume of 200 μL binding buffer [10 mM BES (pH 7.4), 1 mM EDTA, 10 mM manganese chloride, 0.01% BSA] and 1 nM [^3H]-PGD2 (Amersham Biosciences UK Ltd). Ligands are added in assay buffer containing a constant amount of DMSO (1% by volume). Total binding is determined using 1% by volume of DMSO in assay buffer and non-specific binding is determined using 10 μM of unlabeled PGD2 (Sigma). Human embryonic kidney (HEK) cell membranes (3.5 μg) expressing the CRTH2 receptor are incubated with 1.5 mg wheatgerm agglutinin SPA beads and 1 nM [^3H]-PGD2 (Amersham Biosciences UK Ltd) and the mixture incubated for 3 hours at room temperature. Bound [^3H]-PGD2 is detected using a Microbeta TRILUX liquid scintillation counter (Perkin Elmer). Compound IC50 value is determined using a 6-point dose response curve in duplicate with a semi-log compound dilution series. IC50 calculations are performed using Excel and XLfit (Microsoft), and this value is used to determine a Ki value for the test compound using the Cheng-Prusoff equation.

| Ki (CRTH2 receptor [1]) | Ki (CRTH2 receptor [2]) | SMILES |
| --- | --- | --- |
| < 10 nM | 1.5 nM | Cc1c(Cc2sccc2S(=O)(=O)c2ccc(F)cc2)c2cc(F)ccc2n1CC(=O)O [Example 1, {5-fluoro-3-[3-(4-fluorobenzenesulfonyl)thiophen-2-ylmethyl]-2-methylindol-1-yl}acetic acid] |
| < 10 nM | 2.4 nM | Cc1c(Cc2sccc2S(=O)(=O)c2ccccn2)c2cc(F)ccc2n1CC(=O)O [Example 16, {5-fluoro-2-methyl-3-[3-(pyridine-2-sulfonyl)thiophen-2-ylmethyl]indol-1-yl}acetic acid] |
| – | 0.6 nM | Cc1c(Cc2ccccc2S(=O)(=O)N(C)c2ccccc2)c2cc(F)ccc2n1CC(=O)O [Example 21, {5-fluoro-2-methyl-3-[2-(methylphenylsulfamoyl)benzyl]indol-1-yl}acetic acid] |
| < 10 nM | 4.5 nM | Cc1c(Cc2cccnc2S(=O)(=O)c2ccccc2)c2cc(Cl)ccc2n1CC(=O)O [Example 26, {5-chloro-3-[2-(benzenesulfonyl)pyridine-3-ylmethyl]-2-methylindol-1-yl}acetic acid] |
